# Source: US9060949B2, “Menthyl carbamate compounds as skin and/or hair lightening actives” (SYMRISE AG, priority 2010, dated 2015)
# pIC50: −log10 of the molar value. Read-outs that look alike come from different tables or passages of the source.
# How the values were obtained:
# [1] = tested on: Pigmented pig skin; assay: Depigmenting effect on ex vivo skin (melanin granules, Fontana-Masson staining, image analysis); format: cell-based; conditions: 1 wt.% in O/W emulsion applied topically, 6 days, vs. emulsion without test compound
# Method: Pigmented pig skin was excised from animals (slaughtered for meat production; the pig skin model included the subcutis fat layer as described in EP 1 939 27), cut into 4×4×3 mm pieces (length×width×height) and placed in culture at the air-liquid interface on a sterilized cotton pad soaked with 5 ml of customized DMEM (Dulbecco's Modified Eagle Medium). Assays were started 24 h after sample acclimatization at 37° C., 5% CO2. O/W emulsions (as described in more detail below) without (=control) and with the test compounds, respectively, were applied topically and incubated for 6 days. Histological sections were prepared and melanin granules stained by Fontana-Masson technique. The granules were quantified by image analysis.
# The O/W emulsions used had the following composition:
# Phases A and B are heated to 70° C. separately. Pemulen TR1 as well as Ultrez-21 are dispersed in phase B when heated to 70° C. Phase B/C is added to phase A by mixing with an Ultra Turrax, followed by emulsifying. Phase D is slowly added to phase A/B/C using a paddle mixer and a pH 5.5-6 is adjusted. The formulation is cooled down while mixing with a paddle mixer. Phase E is prepared by dissolving one or more compounds of formula (I) in Hydrolite-5. Subsequently, phase E is added to the mixture of phase A-D.
# [2] = tested on: B16V mouse melanoma cells; assay: Depigmenting effect on melanoma cell cultures (inhibition of pigmentation); format: cell-based; conditions: read-out: IC 50 (concentration at which pigmentation is inhibited by 50%)
# Method: B16V mouse melanoma cells are disseminated in a 96-well microtitre plate in a concentration of 5×10^3 cells/well. After cultivation for 24 h at 37° C. and 5% CO2 in RPMI medium, enriched with 10% foetal calf serum, various concentrations of the test substances and 0.3 mM tyrosine and 10 nM α-MSH (α-melanocyte stimulating hormone) are added and incubated for a further 96 h. The maximum concentration of the test substances used corresponds to 0.1 times the value of the IC20 value of the cytotoxicity assay. Standards are incubated with kojic acid in concentrations of 0.01 mM, 0.1 mM and 1 mM in addition to tyrosine and α-MSH. Only tyrosine and α-MSH are added to the controls. After incubation, sodium lauryl sulfate and sodium hydroxide solution (final concentrations: 1 mM and 1 M respectively) are added to the culture medium and the absorption (A) is measured after 3 h at 400 nm.
# The inhibition of pigmentation in the presence of the test compounds or kojic acid was calculated using the following equation: Inhibition of pigmentation(%)=100−[(Atest compound/Acontrol)×100] wherein Atest compound=absorption of the wells with test substance and with cells Acontrol=absorption of the wells without test substance, but with cells
# From the inhibition of pigmentation (%) in a series of dilutions of test compounds, the IC50 for each test compound is calculated. This is the concentration of a test compound at which pigmentation is inhibited by 50%.
# [3] = B16V cells, 0.3 mM tyrosine and 10 nM α-MSH, 96 h incubation, absorption at 400 nm
Compound,"pIC50 [2, 3]",Melanin score vs. Control [1] [%],pIC50 ([2]; 96 h)
"CCNC(=O)O[C@@H]1C[C@H](C)CC[C@H]1C(C)C [BIO1151, Ethyl-carbamic acid (1R,2S,5R)-2-isopropyl-5-methyl-cyclohexyl ester]",4.39,−44,–
"CC(C)CNC(=O)O[C@@H]1C[C@H](C)CC[C@H]1C(C)C [BIO1159, Isobutyl-carbamic acid (1R,2S,5R)-2-isopropyl-5-methyl-cyclohexyl ester]",4.00,–,–
"CNC(=O)O[C@@H]1C[C@H](C)CC[C@H]1C(C)C [BIO1185, Methyl-carbamic acid (1R,2S,5R)-2-isopropyl-5-methyl-cyclohexyl ester]",3.96,–,–
"CCCCNC(=O)O[C@@H]1C[C@H](C)CC[C@H]1C(C)C [BIO1267, Butyl-carbamic acid (1R,2S,5R)-2-isopropyl-5-methyl-cyclohexyl ester]",3.30,–,–
"CNC(=O)O[C@H]1C[C@@H](C)CC[C@@H]1C(C)C [BIO1301, Methyl-carbamic acid (1S,2R,5S)-2-isopropyl-5-methyl-cyclohexyl ester]",4.19,–,–
"COCCNC(=O)O[C@@H]1C[C@H](C)CC[C@H]1C(C)C [BIO1336, (2-Methoxy-ethyl)-carbamic acid (1R,2S,5R)-2-isopropyl-5-methyl-cyclohexyl ester]",4.45,–,–
"COCCCNC(=O)O[C@H]1C[C@@H](C)CC[C@@H]1C(C)C [BIO1339, (3-Methoxy-propyl)-carbamic acid (1S,2R,5S)-2-isopropyl-5-methyl-cyclohexyl ester]",4.27,–,–
"CCNC(=O)O[C@H]1C[C@@H](C)CC[C@@H]1C(C)C [BIO1378, Ethyl-carbamic acid (1S,2R,5S)-2-isopropyl-5-methyl-cyclohexyl ester]",4.53,–,–
"CCNC(=O)O[C@H]1C[C@H](C)CC[C@H]1C(C)C [BIO1461, Ethyl-carbamic acid (1S,2S,5R)-2-isopropyl-5-methyl-cyclohexyl ester]",4.54,–,–
"CC(C)[C@@H]1CC[C@@H](C)C[C@H]1OC(=O)NCc1ccc2c(c1)OCO2 [BIO1571, Benzo[1,3]dioxol-5-ylmethyl-carbamic acid (1R,2S,5R)-2-isopropyl-5-methyl-cyclohexyl ester]",–,–,5.26
"CC(=O)c1ccccc1NC(=O)O[C@@H]1C[C@H](C)CC[C@H]1C(C)C [BIO1633, (2-Acetyl-phenyl)-carbamic acid (1R,2S,5R)-2-isopropyl-5-methyl-cyclohexyl ester]",4.60,–,–
"CC(C)[C@@H]1CC[C@@H](C)C[C@H]1OC(=O)NCCCCCCO [BIO1662, (6-Hydroxy-hexyl)-carbamic acid (1R,2S,5R)-2-isopropyl-5-methyl-cyclohexyl ester]",4.29,–,–
"OC[C@H]1O[C@@H](Oc2ccc(O)cc2)[C@H](O)[C@@H](O)[C@@H]1O [beta-Arbutin, reference compound]",4.17,–,–

# More lines, in order of rising pIC50 [2, 3], values ahead:
"pIC50 [2, 3]",Compound,Melanin score vs. Control [1] [%],pIC50 ([2]; 96 h)
4.66,"COCCCNC(=O)O[C@@H]1C[C@H](C)CC[C@H]1C(C)C [BIO1155, (3-Methoxy-propyl)-carbamic acid (1R,2S,5R)-2-isopropyl-5-methyl-cyclohexyl ester]",−46,–
4.71,"CC(C)OCCCNC(=O)O[C@@H]1C[C@H](C)CC[C@H]1C(C)C [BIO1268, (3-Isopropoxy-propyl)-carbamic acid (1R,2S,5R)-2-isopropyl-5-methyl-cyclohexyl ester]",–,–
4.72,"CCCCCCNC(=O)O[C@@H]1C[C@H](C)CC[C@H]1C(C)C [BIO1271, Hexyl-carbamic acid (1R,2S,5R)-2-isopropyl-5-methyl-cyclohexyl ester]",–,–
4.73,"CC(C)[C@@H]1CC[C@@H](C)C[C@H]1OC(=O)NC1CCCCC1 [BIO1266, Cyclohexyl-carbamic acid (1R,2S,5R)-2-isopropyl-5-methyl-cyclohexyl ester]",–,–
4.83,"CC(C)[C@@H]1CC[C@@H](C)C[C@H]1OC(=O)NCC1CCCO1 (stereo partly drawn) [BIO1702, (Tetrahydro-furan-2-ylmethyl)-carbamic acid (1R,2S,5R)-2-isopropyl-5-methyl-cyclohexyl ester]",–,–
4.97,"CCN(CC)C(=O)O[C@@H]1C[C@H](C)CC[C@H]1C(C)C [BIO1553, Diethyl-carbamic acid (1R,2S,5R)-2-isopropyl-5-methyl-cyclohexyl ester]",–,–
5.11,"CC(C)[C@@H]1CC[C@@H](C)C[C@H]1OC(=O)NCc1ccccc1 [BIO1695, Benzyl-carbamic acid (1R,2S,5R)-2-isopropyl-5-methyl-cyclohexyl ester]",–,–
5.14,"COCCCNC(=O)O[C@H]1C[C@H](C)CC[C@H]1C(C)C [BIO1460, (3-Methoxy-propyl)-carbamic acid (1S,2S,5R)-2-isopropyl-5-methyl-cyclohexyl ester]",–,–
5.16,"CC(C)[C@@H]1CC[C@@H](C)C[C@H]1OC(=O)Nc1ccccc1 [BIO1580, Phenyl-carbamic acid (1R,2S,5R)-2-isopropyl-5-methyl-cyclohexyl ester]",–,–
5.49,"CCOc1ccccc1NC(=O)O[C@@H]1C[C@H](C)CC[C@H]1C(C)C [BIO1632, (2-Ethoxy-phenyl)-carbamic acid (1R,2S,5R)-2-isopropyl-5-methyl-cyclohexyl ester]",–,–
5.85,"CC(C)[C@@H]1CC[C@@H](C)C[C@H]1OC(=O)NCC1CCCCC1 [BIO1699, Cyclohexylmethyl-carbamic acid (1R,2S,5R)-2-isopropyl-5-methyl-cyclohexyl ester]",–,–
